# Assay results published in PubChem BioAssay (NCI).
#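 Assay format: 96-well plates, 48-hour exposure. GI50 is the concentration that inhibits growth by half. TGI: total growth inhibition.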
# Assays:
# Experiment in all cases: DTP human tumour cell line panel, 48 h
# [1] = tested on: A549 NSCLC
# [2] = tested on: T-47D breast
# [3] = tested on: MDA-MB-231 breast
# [4] = tested on: SR leukemia
# [5] = tested on: HS 578T breast
# [6] = tested on: UACC-257 melanoma
# [7] = tested on: ACHN renal
# [8] = tested on: SK-MEL-28 melanoma
# [9] = tested on: OVCAR-3 ovarian
# [10] = tested on: 786-0 renal
# [11] = tested on: SNB-19 CNS
# [12] = tested on: RXF 393 renal
# [13] = tested on: EKVX NSCLC
# [14] = tested on: HT29 colon
# [15] = tested on: A498 renal
# [16] = tested on: MALME-3M melanoma
# [17] = tested on: SK-MEL-5 melanoma
# [18] = tested on: LOX IMVI melanoma
# [19] = tested on: HCC-2998 colon
# [20] = tested on: MOLT-4 leukemia
# [21] = tested on: NCI-H460 lung
# [22] = tested on: NCI-H23 lung
# [23] = tested on: OVCAR-8 ovarian
# [24] = tested on: RPMI-8226 leukemia
# [25] = tested on: HL-60(TB) leukemia
# [26] = tested on: M14 melanoma
# [27] = tested on: SW-620 colon
# [28] = tested on: KM12 colon
# [29] = tested on: UO-31 renal
# [30] = tested on: SK-MEL-2 melanoma
# [31] = tested on: SF-268 CNS
# [32] = tested on: HCT-15 colon
# [33] = tested on: MDA-MB-435
# [34] = tested on: IGROV1 ovarian
# [35] = tested on: TK-10 renal
# [36] = tested on: SN12C renal
# [37] = tested on: PC-3 prostate
# [38] = tested on: CCRF-CEM leukemia
# [39] = tested on: U251 CNS
# [40] = tested on: SNB-75 CNS
# [41] = tested on: SK-OV-3 ovarian
# [42] = tested on: HOP-92 NSCLC
# [43] = tested on: OVCAR-4 ovarian
# [44] = tested on: OVCAR-5 ovarian
# [45] = tested on: HOP-62 NSCLC
# [46] = tested on: SF-295 CNS
# [47] = tested on: NCI-H522 lung
# [48] = tested on: MCF7 breast
# [49] = tested on: DU-145 prostate
# [50] = tested on: BT-549 breast
# [51] = tested on: SF-539 CNS
# [52] = tested on: COLO 205 colon
# [53] = tested on: K-562 leukemia
# [54] = tested on: NCI/ADR-RES ovarian
# [55] = tested on: NCI-H226 lung
# [56] = tested on: UACC-62 melanoma
# [57] = tested on: HCT-116 colon
smiles,measurement,setting,value
COc1cc(/C=C/C(=O)N2CCC=CC2=O)cc(OC)c1OC,GI50,[1],8.57 µM
same,TGI,[1],22.8 µM
same,GI50,[2],2.56 µM
same,TGI,[2],8.51 µM
same,GI50,[3],3.38 µM
same,TGI,[3],10.8 µM
same,GI50,[4],1.75 µM
same,TGI,[4],> 100 µM
same,GI50,[5],5.36 µM
same,TGI,[5],43.6 µM
same,GI50,[6],2.23 µM
same,TGI,[6],5.37 µM
same,GI50,[7],1.73 µM
same,TGI,[7],3.28 µM
same,GI50,[8],2.21 µM
same,TGI,[8],5.53 µM
same,GI50,[9],3.34 µM
same,TGI,[9],11.9 µM
same,GI50,[10],2.41 µM
same,TGI,[10],7.03 µM
same,GI50,[11],5.55 µM
same,TGI,[11],20.6 µM
same,GI50,[12],1.73 µM
same,TGI,[12],4.07 µM
same,GI50,[13],2.94 µM
same,TGI,[13],14.2 µM
same,GI50,[14],2.98 µM
same,TGI,[14],9.08 µM
same,GI50,[15],14.9 µM
same,TGI,[15],29.4 µM
same,GI50,[16],1.97 µM
same,TGI,[16],3.97 µM
same,GI50,[17],3.35 µM
same,TGI,[17],12 µM
same,GI50,[18],2.09 µM
same,TGI,[18],5.13 µM
same,GI50,[19],1.77 µM
same,TGI,[19],3.56 µM
same,GI50,[20],2.74 µM
same,TGI,[20],9.48 µM
same,GI50,[21],3.36 µM
same,TGI,[21],10.6 µM
same,GI50,[22],1.81 µM
same,TGI,[22],4.03 µM
same,GI50,[23],2.86 µM
same,TGI,[23],8.17 µM
same,GI50,[24],1.5 µM
same,TGI,[24],4.81 µM
same,GI50,[25],1.91 µM
same,TGI,[25],5.28 µM
same,GI50,[26],1.92 µM
same,TGI,[26],4.41 µM
same,GI50,[27],2.51 µM
same,TGI,[27],6.61 µM
same,GI50,[28],3.18 µM
same,TGI,[28],12.8 µM
same,GI50,[29],1.78 µM
same,TGI,[29],5.09 µM
same,GI50,[30],2.53 µM
same,TGI,[30],7.09 µM
same,GI50,[31],3.2 µM
same,TGI,[31],12.6 µM
same,GI50,[32],1.83 µM
same,TGI,[32],5.01 µM
same,GI50,[33],2.21 µM
same,TGI,[33],6.05 µM
same,GI50,[34],2.21 µM
same,TGI,[34],11.2 µM
same,GI50,[35],2.99 µM
same,TGI,[35],6.76 µM
same,GI50,[36],2.64 µM
same,TGI,[36],7.84 µM
same,GI50,[37],7.36 µM
same,TGI,[37],28.5 µM
same,GI50,[38],2.12 µM
same,TGI,[38],6.29 µM
same,GI50,[39],3.19 µM
same,TGI,[39],11 µM
same,GI50,[40],36.6 µM
same,TGI,[40],> 100 µM
same,GI50,[41],13.8 µM
same,TGI,[41],27.3 µM
same,GI50,[42],2.29 µM
same,TGI,[42],4.61 µM
same,GI50,[43],3.11 µM
same,TGI,[43],17.4 µM
same,GI50,[44],2.77 µM
same,TGI,[44],8.68 µM
same,GI50,[45],6.93 µM
same,TGI,[45],22.2 µM
same,GI50,[46],6.37 µM
same,TGI,[46],21.1 µM
same,GI50,[47],1.8 µM
same,TGI,[47],3.75 µM
same,GI50,[48],2.36 µM
same,TGI,[48],13.9 µM
same,GI50,[49],4.05 µM
same,TGI,[49],18.6 µM
same,GI50,[50],2.45 µM
same,TGI,[50],7.84 µM
same,GI50,[51],1.82 µM
same,TGI,[51],4.47 µM
same,GI50,[52],1.93 µM
same,TGI,[52],4.14 µM
same,GI50,[53],2.98 µM
same,TGI,[53],> 100 µM
same,GI50,[54],3.41 µM
same,TGI,[54],47.9 µM
same,GI50,[55],2.41 µM
same,TGI,[55],6.55 µM
same,GI50,[56],1.85 µM
same,TGI,[56],3.82 µM
same,GI50,[57],1.8 µM
same,TGI,[57],4.13 µM
